In patent US11339168B2, “Crystalline forms of 6-(6-aminopyrazin-2-yl)-N-(4-(4-(oxetan-3-yl)piperazin-1-yl)phenyl)imidazo[1,2-a]pyrazin-8-amine as Syk inhibitors” (Kronos Bio, Inc., priority 2019, dated 2022):
Where a name gives a salt, the structure may show the parent alone.

Test: Hygroscopicity by dynamic vapor sorption (DVS)
Type: physicochemical
Conditions: for water absorbed (DVS): 25° C. and 95% RH; for hygroscopicity (DVS analysis), in words: 25° C.
Experimental: Hygroscopicity was studied using dynamic vapor sorption (DVS, TA Q5000 SA, TA Instruments, New Castle, Del. or DVS, DVS Intrinsic, Surface Measurement Systems, London, UK). A sample (2-20 mg) was placed in an aluminum DVS pan and loaded on the sample side of the twin pan balance. The water sorption and desorption were studied as a function of relative humidity (RH) at 25° C. In 10% RH increments, the relative humidity was increased from 5% RH to 95% RH and then decreased back to 5%. […] Data analysis was performed using Universal Analysis 2000 Version 4.7A (TA Instruments, New Castle, Del.) for TA DVS runs and Microsoft Excel for SMS DVS runs.

[1] = for Mono-BSA Form I up to 85% RH

Compound: Nc1cncc(-c2cn3ccnc3c(Nc3ccc(N4CCN(C5COC5)CC4)cc3)n2)n1 [Compound I Form I, 6-(6-aminopyrazin-2-yl)-N-(4-(4-(oxetan-3-yl)piperazin-1-yl)phenyl)imidazo[1,2-a]pyrazin-8-amine]
- water absorbed (DVS): about 0.8 wt. %
- hygroscopicity (DVS analysis), in words [1]: slightly hygroscopic

Compound: Nc1cncc(-c2cn3ccnc3c(Nc3ccc(N4CCN(C5COC5)CC4)cc3)n2)n1 [Compound I Form II, 6-(6-aminopyrazin-2-yl)-N-(4-(4-(oxetan-3-yl)piperazin-1-yl)phenyl)imidazo[1,2-a]pyrazin-8-amine]
- water absorbed (DVS): about 2 wt. %
- hygroscopicity (DVS analysis), in words [1]: slightly hygroscopic

Compound: Nc1cncc(-c2cn3ccnc3c(Nc3ccc(N4CCN(C5COC5)CC4)cc3)n2)n1 [Compound I Form V, 6-(6-aminopyrazin-2-yl)-N-(4-(4-(oxetan-3-yl)piperazin-1-yl)phenyl)imidazo[1,2-a]pyrazin-8-amine]
- water absorbed (DVS): about 0.5 wt. %
- hygroscopicity (DVS analysis), in words [1]: slightly hygroscopic

Compound: Nc1cncc(-c2cn3ccnc3c(Nc3ccc(N4CCN(C5COC5)CC4)cc3)n2)n1 [Compound I Hemi-Succinate Form I, 6-(6-aminopyrazin-2-yl)-N-(4-(4-(oxetan-3-yl)piperazin-1-yl)phenyl)imidazo[1,2-a]pyrazin-8-amine]
- hygroscopicity (DVS analysis), in words [1]: slightly hygroscopic
- water uptake (DVS) (90% RH at 25° C.): about 0.4 wt. %

Compound: Nc1cncc(-c2cn3ccnc3c(Nc3ccc(N4CCN(C5COC5)CC4)cc3)n2)n1 [Compound I Mono-BSA Form I, 6-(6-aminopyrazin-2-yl)-N-(4-(4-(oxetan-3-yl)piperazin-1-yl)phenyl)imidazo[1,2-a]pyrazin-8-amine]
- water absorbed (DVS): > 15 wt. %
- hygroscopicity (DVS analysis), in words [1]: slightly hygroscopic
- water uptake (DVS) (85% RH at 25° C.): about 1.5 wt. %
- hygroscopicity (DVS analysis), in words (above 85% RH, led to deliquescence): very hygroscopic

Compound: Nc1cncc(-c2cn3ccnc3c(Nc3ccc(N4CCN(C5COC5)CC4)cc3)n2)n1 [Compound I Mono-HCl salt Form II, 6-(6-aminopyrazin-2-yl)-N-(4-(4-(oxetan-3-yl)piperazin-1-yl)phenyl)imidazo[1,2-a]pyrazin-8-amine]
- hygroscopicity (DVS analysis), in words [1]: very hygroscopic
- water uptake (DVS) (90% RH at 25° C.): about 16 wt. %

Compound: Nc1cncc(-c2cn3ccnc3c(Nc3ccc(N4CCN(C5COC5)CC4)cc3)n2)n1 [Compound I Sesqui-Adipate Form I, 6-(6-aminopyrazin-2-yl)-N-(4-(4-(oxetan-3-yl)piperazin-1-yl)phenyl)imidazo[1,2-a]pyrazin-8-amine]
- hygroscopicity (DVS analysis), in words [1]: moderately hygroscopic
- water uptake (DVS) (90% RH at 25° C.): about 2.1 wt. %
